Source: patent US9464308B2, “Method for transcriptional amplification of nucleic acids combining steps of different temperatures” (priority 2011, dated 2016)
Read-outs that look alike come from different tables or passages of the source.

What was measured:
T7 RNA polymerase [1] = biological target: T1, T7 RNA polymerase (Escherichia phage T7, UniProt P00573); assay: Thermal denaturation of T7 RNA polymerase (T7 Tm) by UV spectrophotometry; format: physicochemical; conditions: for ΔTm: T7 RNA polymerase at 0.05 mg/ml, PBS 150 mM pH 7.5, versus control without additive (T7 Tm 48.5° C.), Sorbitol 1M, Sucrose 1M, Lactose 0.35M, Raffmose 0.085M, D-Turanose 0.15M; for denaturation temperature of the enzyme (in words): heating T7 RNA polymerase in the presence of the additive
T1 construct: purchased bioMérieux, Marcy l'Etoile, France
T1 sequence (P00573 whole entry): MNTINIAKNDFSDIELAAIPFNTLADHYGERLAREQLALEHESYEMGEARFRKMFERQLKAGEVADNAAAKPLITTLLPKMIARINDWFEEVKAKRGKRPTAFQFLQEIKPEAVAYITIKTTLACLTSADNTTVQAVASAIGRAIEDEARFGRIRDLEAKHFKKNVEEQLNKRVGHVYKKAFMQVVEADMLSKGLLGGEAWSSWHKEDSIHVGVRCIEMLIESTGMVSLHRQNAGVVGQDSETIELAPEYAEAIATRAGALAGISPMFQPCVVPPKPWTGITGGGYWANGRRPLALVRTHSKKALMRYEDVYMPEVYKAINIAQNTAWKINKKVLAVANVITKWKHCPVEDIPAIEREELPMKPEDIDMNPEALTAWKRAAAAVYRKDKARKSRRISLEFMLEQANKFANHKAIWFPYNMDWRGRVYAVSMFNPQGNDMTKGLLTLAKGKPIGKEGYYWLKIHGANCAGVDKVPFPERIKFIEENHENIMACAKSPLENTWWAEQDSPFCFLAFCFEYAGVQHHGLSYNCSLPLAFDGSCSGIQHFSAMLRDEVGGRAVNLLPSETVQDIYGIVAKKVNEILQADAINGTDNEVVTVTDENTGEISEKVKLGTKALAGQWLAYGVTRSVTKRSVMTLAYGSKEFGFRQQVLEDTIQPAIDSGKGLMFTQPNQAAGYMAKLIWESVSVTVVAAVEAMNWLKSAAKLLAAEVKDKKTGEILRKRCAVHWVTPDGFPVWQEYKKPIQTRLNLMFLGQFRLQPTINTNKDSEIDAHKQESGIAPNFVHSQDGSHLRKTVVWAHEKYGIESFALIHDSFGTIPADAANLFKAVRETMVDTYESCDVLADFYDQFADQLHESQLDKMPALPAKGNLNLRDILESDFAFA
Method: T7 RNA polymerase was chosen as model enzyme since it is the most sensitive to thermal denaturation; the T7 Tm without additive is 48.5° C.
A UV spectrophotometry technique is used to measure the T7 Tm values. The change in the absorbance of the protein at λ=280 nm as a function of temperature is measured. When the enzyme is heated, the solution becomes cloudy, and aggregates form which correspond to the denatured form. The Tm corresponds to the temperature for which there is 50% of native form and 50% of denatured form (first derivative of the curve absorbance=f(temperature)).
In a polypropylene flask, 4 ml of 300 mM PBS phosphate buffer (Aldrich P-4417, St Quentin Fallavier, France) are mixed with 12μl of T7 RNA polymerase enzyme (bioMérieux, Marcy l'Etoile, France) at 17 mg/ml, i.e. a final protein concentration of 0.05 mg/ml. 500 μl of T7 RNA polymerase solution at 0.05 mg/ml and 500 μl of a concentrated solution of additives (Aldrich, St Quentin Fallavier, France) or of 300 mM PBS for the control are then placed in a quartz cuvette for UV spectrophotometry. After homogenization, the change in absorbance at λ=280 nm is measured as a function of temperature, between 30 and 65° C. at 1° C./min, in order to determine the T7 Tm as previously described (Cary UV spectrophotometer, Varian, Les Ulis, France).

HIV-1 type B transcript [2] = assay: NASBA HIV-1 2.0 amplification test at 46° C., functional screening of thermostabilizing compounds; format: biochemical; conditions: 7.5 cps/reaction HIV-1B transcript, lactose 0.21 M, sorbitol 1.2 M, sucrose 0.6 M
Method: The FIG. 1 represent the functional screening of thermostabilizing compounds during NASBA amplifications at 46° C. in the presence of 7.5 cps/reaction of HIV-1B transcript (seven replicas per screening), with in:
A set of compounds with thermostabilizing properties or assumed to have such properties was evaluated in a NASBA HIV-1 2.0 amplification test on a Nuclisens EasyQ™ amplification platform (bioMérieux, Marcy l'Etoile, France) according to the supplier's recommendations. 5 cps to 30 cps of an HIV-1 type B transcript were used as target in each reaction in the presence or absence of the compound to be evaluated.
The obtaining of an amplification in the presence of the compound at a temperature of 46° C. makes it possible to validate the compound as compatible and thermostabilizing for the NASBA reaction.

T7 RNA polymerase [3] = biological target: T1, T7 RNA polymerase; assay: Thermostability (T1/2) at 46° C. of T7 RNA polymerase activity; format: biochemical; conditions: environment specific to NASBA, sorbitol 1.48 M
Method: In this example, the values of T1/2 of T7 RNA polymerase are determined in the presence or absence of polyols. A description of the measurement method is given below, as are the various reagents used.
Mix buffers B, C and D according to the following proportions with the following Nuclisens™ HIV-1 2.0 reagents (ref.: 285033, bioMérieux, Marcy l'Etoile, France) (for eight reactions): • 36.08 μl buffer A • 6.32 μl buffer B • 25.36 μl buffer C • 173.6 μl buffer D • eight “Nuclisens™ HIV-1 2.0 accusphere reagent” • 960 μl of “Nuclisens™ HIV-1 2.0 diluent reagent”. […]
• 1. The enzymes to be evaluated are diluted in such a way as to have a volumetric activity of 109 kU/ml. • 2. A volume of 20 μl of the enzyme to be evaluated is diluted in 840 μl of solution W1. • 3. 114 μl of the compound to be evaluated are then added to 193.5 μl of enzymatic mix described in point 2 above. • 4. […] 20 μl of solution S are added to 5 n1 of this preincubated mixture in order to measure the rate of increase in fluorescence between 5 and 10 minutes, associated with the residual activity of the enzyme. • 6. […]

T7 RNA polymerase [4] = biological target: T1, T7 RNA polymerase; assay: Maximum preincubation temperature preserving T7 RNA polymerase activity (3 min preincubation); format: biochemical; conditions: 1.4 M sorbitol
Method: FIG. 2 describes the residual activity (%) of T7 RNA polymerase after 3 minutes of preincubation at various temperatures and in the presence of various thermostabilizing compounds.
In this example, the maximum temperature that the T7 RNA polymerase could withstand for a preincubation of 3 minutes in the presence of thermostabilizing compounds is determined.
This step can be likened to a target predenaturation or preincubation phase. The protocol used in this example is similar to that of example 2, with the exception of the fact that the temperatures are variable and that the preincubation time was fixed at 3 minutes.

HIV-1 type B transcript [5] = assay: Sensitivity of NASBA detection at 46° C. without target denaturation phase; format: biochemical; conditions: HIV-1 type B transcript at 5 cps/test, no target denaturation phase, N=24
Description: FIG. 4 gives the measurement of the sensitivity (%) obtained in the presence of various thermostabilizing compounds during an HIV-1 type B NASBA amplification at 5 cps/test and without target denaturation phase (N=24).
The objective of this is to simplify the method by virtue of the simultaneous addition of the targets to the enzyme and amplification reagent mixes.
A Nuclisens™ HIV-1 2.0 amplification kit (ref.: 285033, bioMérieux, Marcy l'Etoile, France) was used to carry out the amplification experiments in the presence of trehalose, sucrose or sorbitol at the detection limit with an HIV-1 type B transcript at 5 cps/test. Each amplification is replicated 24 times in order to estimate the sensitivity of the test in the presence of thermostabilizing compounds at 46° C.
The sensitivity is expressed as percentage of positive signals determined by the EasyQ™ analysis system, relative to the total number of replicates.

T7 RNA polymerase [6] = biological target: T1, T7 RNA polymerase; assay: Residual T7 RNA polymerase activity after preincubation at various temperatures, with or without 0.4 M trehalose; format: biochemical; conditions: 15 minutes of preincubation at various temperatures
Method: FIG. 3A describes the residual activity of T7 RNA polymerase after 15 minutes of preincubation at various temperatures, with or without 0.4 M trehalose.
(§1) Description of the method for measuring the T7 RNA polymerase, RNAse H and AMV-RT activities for example 5: • 1. The T7 RNA polymerase, RNAse H and AMV-RT enzymes are used at volumetric activities of 109 kU/ml, 1 kU/ml and 25 kU/ml respectively. • 2. The T7 RNA polymerase, RNAse H and AMV-RT enzymes are diluted in the solution W1 of example 3 according to the ratios 1/43, 2/191 and 2/27 respectively, in order to mimic the physicochemical environment of the NASBA reaction. • 3. […] The residual activity of each of the T7 RNA polymerase, RNAse H or AMV-RT activities is then measured by adding 5 μl of enzymatic solution to 20 μl of solution S containing the reagents corresponding to each of the activities measured. […]
(§2) • 6. The residual activity of each mutant is expressed as percentage of the fraction of enzyme having not been preincubated and corresponding to 100% activity according to the following calculation: • ρN=slope obtained between 5 and 10 min for the enzyme not preincubated, • ρT=slope obtained between 5 and 10 min for the enzyme preincubated at various temperatures, with or without the presence of the polyol to be studied, and • percentage relative activity=% (ρT/ρN).

RNAse H = assay: Residual RNAse H activity after preincubation at various temperatures, with or without 0.4 M trehalose; format: biochemical; conditions: 25 minutes of preincubation at various temperatures
Method: FIG. 3B describes the residual activity of RNAse H after 25 minutes of preincubation at various temperatures, with or without 0.4 M trehalose.
as §1, §2

AMV-RT = assay: Residual AMV-RT activity after preincubation at various temperatures, with or without 0.4 M trehalose; format: biochemical; conditions: 25 minutes of preincubation at various temperatures
Method: FIG. 3C describes the residual activity of AMV-RT after 25 minutes of preincubation at various temperatures, with or without 0.4 M trehalose.
as §1, §2

[7] = 3 minutes at 48° C., 0.7 M sucrose, 0.4 M trehalose

| SMILES | NASBA amplification at 46° C. (positive signals out of seven replicas) (HIV-1 type B transcript [2]) | ΔTm (T7 RNA polymerase [1]; read-out: ΔTm) | denaturation temperature of the enzyme (in words) (T7 RNA polymerase [1]) | thermostabilizing effect on the T7 RNA polymerase activity (in words) (T7 RNA polymerase [3]) | T7 RNA polymerase activity preserved (T7 RNA polymerase [4]; [7]) | also measured |
| --- | --- | --- | --- | --- | --- | --- |
| O=C(CO)[C@@H](O[C@H]1O[C@H](CO)[C@@H](O)[C@H](O)[C@H]1O)[C@H](O)[C@H](O)CO [D-Turanose] |  |  |  |  |  | ΔTm (T7 RNA polymerase [1]): −4.4 °C |
| OC[C@H]1O[C@@H](O[C@H]2[C@H](O)[C@@H](O)C(O)O[C@@H]2CO)[C@H](O)[C@@H](O)[C@H]1O (stereo partly drawn) [Lactose, lactose] | at least four positive signals out of seven replicas | 5.5 °C | very significantly increase the denaturation temperature of the enzyme | weak thermostabilizing power |  |  |
| OC[C@H]1O[C@H](OC[C@H]2O[C@H](O[C@]3(CO)O[C@H](CO)[C@@H](O)[C@@H]3O)[C@H](O)[C@@H](O)[C@@H]2O)[C@H](O)[C@@H](O)[C@H]1O [Raffmose, raffinose] |  | 0.5 °C |  |  |  |  |
| OC[C@@H](O)[C@@H](O)[C@H](O)[C@@H](O)CO [Sorbitol, sorbitol] | at least four positive signals out of seven replicas | 0.9 °C | very significantly increase the denaturation temperature of the enzyme | greatest thermostabilizing effect | 100% | T7 RNA polymerase activity preserved (T7 RNA polymerase [4]; 3 minutes at 49° C.): 100%; sensitivity (percentage of positive signals relative to total replicates) (HIV-1 type B transcript [5]): 100% |
| OC[C@H]1O[C@@](CO)(O[C@H]2O[C@H](CO)[C@@H](O)[C@H](O)[C@H]2O)[C@@H](O)[C@@H]1O [Sucrose, sucrose] | at least four positive signals out of seven replicas | 5.8 °C | very significantly increase the denaturation temperature of the enzyme |  | 100% |  |
| OC[C@H]1O[C@H](O[C@H]2O[C@H](CO)[C@@H](O)[C@H](O)[C@H]2O)[C@H](O)[C@@H](O)[C@@H]1O [Trehalose, trehalose] |  |  |  |  | 100% | thermostability of T7 RNA polymerase (in words) (T7 RNA polymerase [6]): makes it possible to render it more thermostable; thermostabilizing effect on RNAse H activity (in words) (RNAse H): thermostabilizing effect; thermostabilizing effect on AMV-RT activity (in words) (AMV-RT): thermostabilizing effect |
